From ChEMBL document CHEMBL3813687, “A combined ligand- and structure-based approach for the identification of rilmenidine-derived compounds which synergize the antitumor effects of doxorubicin” (Bioorg Med Chem, 2016)

Tests used:
[1] = biological target: T1, Alpha-2A adrenergic receptor (Homo sapiens, UniProt P08913); experiment: Displacement of [3H]RS-79948-197 from recombinant human alpha2A adrenoreceptor expressed in CHOK1 cell membrane by scintillation counting method; type: cell membranes, CHO-K1; settings: read-out: Ki(app)
T1 sequence (P08913 whole entry): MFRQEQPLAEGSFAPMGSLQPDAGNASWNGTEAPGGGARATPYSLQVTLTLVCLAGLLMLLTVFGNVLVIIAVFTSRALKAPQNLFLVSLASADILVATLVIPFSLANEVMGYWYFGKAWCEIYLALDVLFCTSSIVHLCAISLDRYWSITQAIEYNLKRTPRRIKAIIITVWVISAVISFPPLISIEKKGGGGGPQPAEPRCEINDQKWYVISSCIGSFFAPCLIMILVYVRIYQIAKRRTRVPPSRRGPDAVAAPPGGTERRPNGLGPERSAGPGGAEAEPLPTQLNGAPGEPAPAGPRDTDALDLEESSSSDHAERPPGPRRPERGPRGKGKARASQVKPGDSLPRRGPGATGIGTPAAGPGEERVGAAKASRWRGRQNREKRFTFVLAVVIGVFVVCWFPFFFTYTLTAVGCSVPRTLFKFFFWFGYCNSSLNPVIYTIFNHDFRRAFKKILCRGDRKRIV

[2] = biological target: T1, Alpha-2A adrenergic receptor; experiment: Intrinsic activity at recombinant human alpha2A adrenoreceptor expressed in CHOK1 cell membrane incubated for 30 mins by [35S]GTPgammaS binding assay relative to adrenaline; type: cell membranes; settings: CHO-K1, human, 0.5 h; read-out: Intrinsic activity
K562 [3] = experiment: Antiproliferative activity against human K562 cells assessed as inhibition of cell survival after 48 hrs by MTT assay; type: functional, cell-based; settings: K562, 48 h
Nischarin [4] = biological target: T2, Nischarin (Rattus norvegicus, UniProt Q4G017); experiment: Displacement of [125I]PIC from Imidazoline-1 receptor in rat PC12 cell membrane incubated for 30 mins by gamma counting method; type: cell membranes, PC-12
K562 [5] = experiment: Induction of apoptosis in human K562 cells assessed as early apoptotic cells at 300 uM after 24 hrs by Annexin V-FITC/propidium iodide staining based flow cytometry (reference value: 5%); type: functional
K562 [6] = experiment: Induction of apoptosis in human K562 cells assessed as early apoptotic cells at 300 uM after 48 hrs by Annexin V-FITC/propidium iodide staining based flow cytometry (reference value: 5%); type: functional
Nischarin [7] = biological target: T2, Nischarin; experiment: Displacement of [125I]PIC from Imidazoline-1 receptor in rat PC12 cell membrane by gamma counting method; type: cell membranes, PC-12
[8] = Displacement of [3H]-clonidine from Imidazoline-1 receptor in bovine chromaffin cell membranes incubated for 40 mins in presence of RX821002; parameters: species or system Bos taurus
[9] = Displacement of [3H]-clonidine from Imidazoline-1 receptor in bovine adrenal medullary plasma membrane incubated for 40 mins in presence of RX821002; parameters: species or system Bos taurus

T2 sequence (Q4G017 whole entry): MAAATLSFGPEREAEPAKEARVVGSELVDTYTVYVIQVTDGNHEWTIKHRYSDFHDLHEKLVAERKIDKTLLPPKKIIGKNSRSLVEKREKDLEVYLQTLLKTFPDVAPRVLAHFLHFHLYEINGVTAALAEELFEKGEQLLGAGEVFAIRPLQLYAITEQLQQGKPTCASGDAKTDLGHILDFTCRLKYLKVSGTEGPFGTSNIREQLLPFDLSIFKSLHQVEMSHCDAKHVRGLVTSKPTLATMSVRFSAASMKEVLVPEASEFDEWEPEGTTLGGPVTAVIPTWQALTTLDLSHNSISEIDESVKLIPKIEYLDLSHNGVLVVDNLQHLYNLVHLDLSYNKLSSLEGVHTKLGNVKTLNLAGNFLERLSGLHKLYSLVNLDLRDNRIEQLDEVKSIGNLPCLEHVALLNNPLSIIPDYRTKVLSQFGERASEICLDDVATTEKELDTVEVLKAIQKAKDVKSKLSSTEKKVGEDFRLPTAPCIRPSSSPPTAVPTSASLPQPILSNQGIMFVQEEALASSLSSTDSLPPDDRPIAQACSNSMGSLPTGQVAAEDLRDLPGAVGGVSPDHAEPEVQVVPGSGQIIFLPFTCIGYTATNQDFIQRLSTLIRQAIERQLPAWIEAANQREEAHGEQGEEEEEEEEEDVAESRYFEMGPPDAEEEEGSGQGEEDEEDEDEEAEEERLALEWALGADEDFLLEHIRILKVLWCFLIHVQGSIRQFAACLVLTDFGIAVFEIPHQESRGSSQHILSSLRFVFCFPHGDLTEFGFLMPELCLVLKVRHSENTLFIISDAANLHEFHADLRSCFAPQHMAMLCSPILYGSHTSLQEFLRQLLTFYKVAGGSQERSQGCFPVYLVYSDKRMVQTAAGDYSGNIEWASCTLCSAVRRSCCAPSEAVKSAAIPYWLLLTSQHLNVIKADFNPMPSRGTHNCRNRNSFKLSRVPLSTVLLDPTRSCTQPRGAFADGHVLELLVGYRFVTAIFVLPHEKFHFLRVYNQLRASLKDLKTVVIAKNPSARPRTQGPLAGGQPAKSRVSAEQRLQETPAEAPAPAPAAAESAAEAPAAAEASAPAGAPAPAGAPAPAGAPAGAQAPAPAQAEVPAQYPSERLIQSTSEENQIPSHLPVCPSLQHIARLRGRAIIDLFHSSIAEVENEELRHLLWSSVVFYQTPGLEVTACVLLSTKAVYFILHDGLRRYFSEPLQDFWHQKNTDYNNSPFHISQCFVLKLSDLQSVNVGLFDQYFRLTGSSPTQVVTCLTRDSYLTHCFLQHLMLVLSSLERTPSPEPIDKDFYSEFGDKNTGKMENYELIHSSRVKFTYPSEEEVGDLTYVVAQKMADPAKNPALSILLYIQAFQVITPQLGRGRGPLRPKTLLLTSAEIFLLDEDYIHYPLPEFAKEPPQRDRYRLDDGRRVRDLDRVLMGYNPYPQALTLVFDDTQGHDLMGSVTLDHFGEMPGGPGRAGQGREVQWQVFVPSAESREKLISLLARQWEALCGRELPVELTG

Structure (SMILES): CCC1(c2cnc[nH]2)Cc2ccccc2C1 [ATIPAMEZOLE]
- Ki [1]: 0.0012 µM

Structure (SMILES): CCCCCn1c(C)cc(NCc2ccc(Cl)cc2)cc1=O
- Emax [2]: 0%
- Ki [1]: 80 µM
- IC50 (K562 [3]): > 300 µM

Structure (SMILES): CC1CCC(=Nc2ccc(I)cc2Cl)N1 (stereo unspecified)
- Ki (Nischarin [4]): 0.000178 µM

Structure (SMILES): Cc1cc(NCc2ccc(C(F)(F)F)cc2)cc(=O)n1CC(C)C
- Emax [2]: -6%
- Ki [1]: 58 µM
- IC50 (K562 [3]): 222 µM

Structure (SMILES): COc1nc(C)nc(Cl)c1NC1=NCCN1 [MOXONIDINE]
- Activity (K562 [5]): 2.31%
- Activity (K562 [6]): 2.68%

Structure (SMILES): Clc1cccc2c1CN(NC1=NCCN1)C2
- Ki (Nischarin [4]): 0.0282 µM

Structure (SMILES): Cc1cc(NCc2ccccc2)cc(=O)n1CCC(C)C
- Emax [2]: -10%
- Ki [1]: 27 µM
- IC50 (K562 [3]): > 300 µM

Structure (SMILES): c1ccc2c(c1)OCC(C1=NCCN1)O2 (stereo unspecified) [IDAZOXAN]
- Ki (Nischarin [7]): 1.26 µM

Structure (SMILES): Clc1cc(I)cc(Cl)c1N=C1NCCN1 [PI-CLONIDINE]
- Ki (Nischarin [4]): 0.000794 µM

Structure (SMILES): Cc1cccc([C@H](C)c2c[nH]cn2)c1C [DEXMEDETOMIDINE]
- Emax [2]: 63%

Structure (SMILES): N#CSc1ccc2oc(C3=NCCN3)cc2c1
- pKi [8]: 5.6

Structure (SMILES): CCCCCNc1cc(C)n(CCCCC)c(=O)c1
- Emax [2]: -18%
- Ki [1]: 62 µM
- IC50 (K562 [3]): 115 µM

Structure (SMILES): CCCCCn1c(C)cc(NCc2ccccc2)cc1=O
- Emax [2]: -12%
- Ki [1]: 41 µM
- IC50 (K562 [3]): > 300 µM

Structure (SMILES): CCC1CCC(NC(C2CC2)C2CC2)=N1 (stereo unspecified)
- pKi [8]: 6.77

Structure (SMILES): CC(CC1=NCCN1)c1ccccc1 (stereo unspecified)
- Ki (Nischarin [7]): 7.24 µM

Structure (SMILES): CC1CCC(NC(C2CC2)C2CC2)=N1 (stereo unspecified)
- pKi [8]: 5.8

Structure (SMILES): NC1=NCC(COc2ccccc2Br)O1 (stereo unspecified)
- pKi [9]: 8.19

Structure (SMILES): Cc1cc(NCCC(C)C)cc(=O)n1CCC(C)C
- Emax [2]: -17%
- Ki [1]: 52 µM
- IC50 (K562 [3]): 128 µM
